From patent US6488938B1, “Polylactic acid scleral plug” (Santen Pharmaceutical Co., Ltd., priority 1997, dated 2002)

Test: Release test of ganciclovir from scleral plug in phosphate buffered solution
Assay type: physicochemical
Conditions: phosphate buffered solution (0.1 M, pH 7.4)
Description: The scleral plug produced in Example 1 was shaken in a phosphate buffered solution (0.1 M, pH 7.4) to release a drug (ganciclovir). The release medium was collected at predetermined intervals and replaced with a new buffer. These operations were repeated. Absorbance of the release medium at 254 nm was measured with a spectrophotometer, and an amount of the released drug was determined.

Compound: Nc1nc(O)c2ncn(COC(CO)CO)c2n1 [ganciclovir]
- decomposition of drug during the release test: does not decompose
